In US20220296595A1, “CDK INHIBITORS” (QILU REGOR THERAPEUTICS INC., priority 2019, published 2022):

Test system: phosphorylation of Retinoblastoma Protein (pRb Ser807/811 or Ser780) in T47D cells
Experiment: Inhibition of phosphorylation of retinoblastoma protein (pRb) in T47D cell (ELISA)
Assay type: cell-based, human
Conditions: Homo sapiens, T47D, read-out: Phospho T47D Ser807 IC50, pRb Ser807 phosphorylation, T47D cells
Protocol: T47D breast cancer cells from American Type Culture Collection (ATCC, HTB-133) were plated at 40,000 cells/well in 96-well plates, and were incubated in RPMI 1640 medium (Gibco, 31800105) with 10% Fetal Bovine Serum (FBS, Biowest, FB-1058). Cells were then allowed to adhere overnight at 37° C., 5% CO2. The following day, compounds were titrated in a 3-fold dilution scheme, and the highest compound concentration tested was […]. After 24 hours incubation with compounds, cells were lysed in ice-cold lysis buffer containing phosphatase inhibitor cocktail and 1 mM PMSF. Cell lysates (50 μL/well) were then transferred to ELISA plates (pRb Ser807/811 ELISA kit, Cell Signaling, 13152 or pRb Ser780 ELISA kit, Cell Signaling, 13016)). Plates were incubated overnight at 4° C., with constant slow speed shaking. After incubation, plates were washed following manufacturer's recommendations, and then 100 μL reconstituted detection antibody was added to each well and incubated for 1 hour at 37° C. After incubation, plates were washed, and then 100 μL reconstituted HRP-linked secondary antibody was added to each well and incubated for 30 mins at 37° C. After incubation, plates were washed. Then, 100 μL TMB substrate was added to each well and incubated for 10 min at 37° C. or 30 min at 25° C. Finally, 100 μL of STOP solution was added to each well and mixed gently for a few seconds. Plates were read on the Envision plate reader (PerkinElmer, 2104-0010) using the 96-well […] mode. IC50 values were calculated using 4 parameter sigmoidal dose-response model of Xlfit5/GraphPad Prism 5 software.

Row | Compound | IC50
1 | COc1nc(-c2ccnc(Nc3ccc(N4CCOC(C)C4)cn3)n2)cc2c1ncn2C(C)C (stereo not shown) [compound 96] | 100 to 500 nM
2 | COc1nc(-c2nc(Nc3ccc(N4CCC5(CC4)CC(=O)NC5=O)cn3)ncc2F)cc2c1nc(C)n2C(C)C [compound 79] | 100 to 500 nM
3 | COc1nc(-c2ccnc(Nc3ccc(CN4CCC(C#N)C4)cn3)n2)cc2c1ncn2C(C)C (stereo not shown) [compound 67] | 100 to 500 nM
4 | CC(C)n1cnc2c(F)nc(-c3ccnc(Nc4ccc(N5CCN(C)CC5)cn4)n3)cc21 [compound 290] | < 100 nM
5 | COc1nc(-c2nc(Nc3ccc(N4CCN(CCF)CC4)cn3)ncc2F)cc2c1ncn2C(C)C [compound 125] | 100 to 500 nM
6 | CCNC1CCN(c2ccc(Nc3nccc(-c4ccn5ncc(C(C)C)c5c4)n3)nc2)C(=O)C1 (stereo not shown) [compound 209] | < 100 nM
7 | COc1nc(-c2nc(Nc3ccc(N4CC5CCC(C4)O5)cn3)ncc2F)cc2c1nc(C)n2C(C)C [compound 65] | 100 to 500 nM
8 | COc1nc(-c2ccnc(Nc3ccc(CN4CCOCC4)cn3)n2)cc2c1ncn2C(C)C [compound 81] | 100 to 500 nM
9 | COc1nc(-c2ccnc(Nc3ccc(N4CCN(C5COC5)CC4)cn3)n2)cc2c1ncn2C(C)C [compound 130] | 100 to 500 nM
10 | CC(C)n1cnc2c1CN(c1ccnc(Nc3ccc(N4CCN(S(C)(=O)=O)CC4=O)cn3)n1)CC2 [compound 240] | > 1000 nM
11 | COc1nc(-c2nc(Nc3ccc(N4CCN(C5COC5)CC4)cn3)ncc2F)cc2c1ncn2C(C)C [compound 133] | 100 to 500 nM
12 | COc1nc(-c2nc(Nc3ccc(N4CCCC4=O)cn3)ncc2F)cc2c1nc(C)n2C(C)C [compound 82] | 100 to 500 nM
13 | COc1nc(-c2ccnc(Nc3ccc(N4CCOC(C)(C)C4)cn3)n2)cc2c1ncn2C(C)C [compound 88] | 100 to 500 nM
14 | CC(C)c1cnn2ccc(-c3ccnc(Nc4ccn(CC5CCN(C(=O)CO)CC5)n4)n3)cc12 [Synthetic Example 55] | 100 to 500 nM
15 | COc1nc(-c2ccnc(Nc3ccc(N4CC5CC4CO5)cn3)n2)cc2c1ncn2C(C)C (stereo not shown) [compound 104] | 100 to 500 nM
16 | COc1nc(-c2ccnc(Nc3ccc(CN4CCC(F)C4)cn3)n2)cc2c1ncn2C(C)C (stereo not shown) [compound 76] | 100 to 500 nM

Same assay, conditions: pRb Ser807 phosphorylation, T47D cells; read-out: Phospho T47D Ser807 IC50

Row | Compound | IC50
17 | N-[5-[4-(dimethylamino)-1-piperidyl]-2-pyridyl]-4-(3-isopropylpyrazolo[1,5-a]pyridin-5-yl)pyrimidin-2-amine [Synthetic Example 161] | < 100 nM

Biological target: T1, CDK2/CyclinE1 (Homo sapiens, UniProt P24941)
T1 construct: purchased SignalChem C29-18G
Experiment: Assay for inhibition of CDK2/CyclinE1 (Caliper microfluidic kinase assay)
Assay type: biochemical
Conditions: CDK2/CyclinE1, 100 μM ATP; read-out: CDK2 IC50
Outline: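 IC50 came from 4-parameter fits of substrate-to-product conversion, separated on a Caliper chip after an EDTA stop. Reactions ran 3 hours at room temperature with 100 μM ATP, 5 μM fluorescent FL-18 peptide and 5 nM enzyme in 100 mM HEPES pH 7.5, 10 mM MgCl2.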

Row | Compound | IC50
18 | CC(C)n1cnc2c(F)nc(-c3ccnc(Nc4ccc(N5CCN(C)CC5)cn4)n3)cc21 [compound 290] | 100 to 1000 nM
19 | COc1nc(-c2nc(Nc3ccc(N4CCN(CCF)CC4)cn3)ncc2F)cc2c1ncn2C(C)C [compound 125] | > 1000 nM
20 | CCNC1CCN(c2ccc(Nc3nccc(-c4ccn5ncc(C(C)C)c5c4)n3)nc2)C(=O)C1 (stereo not shown) [compound 209] | < 10 nM
21 | COc1nc(-c2ccnc(Nc3ccc(N4CCN(C5COC5)CC4)cn3)n2)cc2c1ncn2C(C)C [compound 130] | > 1000 nM
22 | CC(C)n1cnc2c1CN(c1ccnc(Nc3ccc(N4CCN(S(C)(=O)=O)CC4=O)cn3)n1)CC2 [compound 240] | 10 to 100 nM
23 | COc1nc(-c2nc(Nc3ccc(N4CCN(C5COC5)CC4)cn3)ncc2F)cc2c1ncn2C(C)C [compound 133] | > 1000 nM
24 | CC(C)c1cnn2ccc(-c3ccnc(Nc4ccn(CC5CCN(C(=O)CO)CC5)n4)n3)cc12 [Synthetic Example 55] | > 1000 nM

Same assay, conditions: CDK2/CyclinE1; read-out: CDK2 IC50

Row | Compound | IC50
25 | COc1nc(-c2ccnc(Nc3ccc(N4CCOC(C)C4)cn3)n2)cc2c1ncn2C(C)C (stereo not shown) [compound 96] | > 1000 nM
26 | COc1nc(-c2nc(Nc3ccc(N4CCC5(CC4)CC(=O)NC5=O)cn3)ncc2F)cc2c1nc(C)n2C(C)C [compound 79] | > 1000 nM
27 | COc1nc(-c2ccnc(Nc3ccc(CN4CCC(C#N)C4)cn3)n2)cc2c1ncn2C(C)C (stereo not shown) [compound 67] | > 1000 nM
28 | COc1nc(-c2nc(Nc3ccc(N4CC5CCC(C4)O5)cn3)ncc2F)cc2c1nc(C)n2C(C)C [compound 65] | > 1000 nM
29 | COc1nc(-c2ccnc(Nc3ccc(CN4CCOCC4)cn3)n2)cc2c1ncn2C(C)C [compound 81] | > 1000 nM
30 | COc1nc(-c2nc(Nc3ccc(N4CCCC4=O)cn3)ncc2F)cc2c1nc(C)n2C(C)C [compound 82] | 100 to 1000 nM
31 | COc1nc(-c2ccnc(Nc3ccc(N4CCOC(C)(C)C4)cn3)n2)cc2c1ncn2C(C)C [compound 88] | > 1000 nM
32 | COc1nc(-c2ccnc(Nc3ccc(N4CC5CC4CO5)cn3)n2)cc2c1ncn2C(C)C (stereo not shown) [compound 104] | > 1000 nM
33 | COc1nc(-c2ccnc(Nc3ccc(CN4CCC(F)C4)cn3)n2)cc2c1ncn2C(C)C (stereo not shown) [compound 76] | > 1000 nM

Test system: T47D breast cancer cells
Experiment: Anti-proliferation assay in T47D cell (Cyquant, day 6)
Assay type: cell-based, human
Conditions: Homo sapiens, T47D, anti-proliferation, T47D cells; read-out: T47D IC50
Outline: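 A ten-point, 3-fold compound series (10 μM down to 0.51 nM) was applied to overnight-settled cells in 10% FBS RPMI 1640, and DNA content was read by CyQuant fluorescence 6 days later. An untreated plate read before dosing served as baseline for subtraction before IC50 fitting.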

Row | Compound | IC50
34 | COc1nc(-c2ccnc(Nc3ccc(N4CCOC(C)C4)cn3)n2)cc2c1ncn2C(C)C (stereo not shown) [compound 96] | 100 to 500 nM
35 | CCNC1CCN(c2ccc(Nc3nccc(-c4ccn5ncc(C(C)C)c5c4)n3)nc2)C(=O)C1 (stereo not shown) [compound 209] | < 100 nM
36 | COc1nc(-c2ccnc(Nc3ccc(CN4CCOCC4)cn3)n2)cc2c1ncn2C(C)C [compound 81] | 100 to 500 nM
37 | COc1nc(-c2ccnc(Nc3ccc(N4CCN(C5COC5)CC4)cn3)n2)cc2c1ncn2C(C)C [compound 130] | 100 to 500 nM
38 | CC(C)n1cnc2c1CN(c1ccnc(Nc3ccc(N4CCN(S(C)(=O)=O)CC4=O)cn3)n1)CC2 [compound 240] | > 1000 nM
39 | COc1nc(-c2nc(Nc3ccc(N4CCCC4=O)cn3)ncc2F)cc2c1nc(C)n2C(C)C [compound 82] | 100 to 500 nM
40 | COc1nc(-c2ccnc(Nc3ccc(N4CCOC(C)(C)C4)cn3)n2)cc2c1ncn2C(C)C [compound 88] | 100 to 500 nM
41 | CC(C)c1cnn2ccc(-c3ccnc(Nc4ccn(CC5CCN(C(=O)CO)CC5)n4)n3)cc12 [Synthetic Example 55] | 500 to 1000 nM
42 | COc1nc(-c2ccnc(Nc3ccc(N4CC5CC4CO5)cn3)n2)cc2c1ncn2C(C)C (stereo not shown) [compound 104] | 100 to 500 nM

Biological target: T2, CDK4/CyclinD1 (Homo sapiens, UniProt P11802)
T2 construct: purchased Thermofisher PR8064A
Experiment: Assay for inhibition of CDK4/CyclinD1 (Caliper microfluidic kinase assay)
Assay type: biochemical
Conditions: CDK4/CyclinD1
Outline: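 IC50 was obtained by 4-parameter sigmoidal fitting after 1 nM CDK4/CyclinD1, 200 μM ATP and 1 μM FL-34 substrate reacted for 3 h at room temperature (pH 7.5 HEPES, 10 mM MgCl2). After EDTA quench, substrate and product were separated and detected on a Caliper microfluidic chip.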

T2 sequence (P11802 whole entry): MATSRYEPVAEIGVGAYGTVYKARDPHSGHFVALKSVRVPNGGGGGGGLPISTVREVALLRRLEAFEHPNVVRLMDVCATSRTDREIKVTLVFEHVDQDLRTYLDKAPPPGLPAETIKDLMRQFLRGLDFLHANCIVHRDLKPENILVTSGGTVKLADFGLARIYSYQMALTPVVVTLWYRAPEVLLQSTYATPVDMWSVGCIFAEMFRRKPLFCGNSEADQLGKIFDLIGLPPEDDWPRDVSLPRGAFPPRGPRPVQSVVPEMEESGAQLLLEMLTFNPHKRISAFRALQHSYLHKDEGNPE
T2 sequence (P24385 whole entry partner): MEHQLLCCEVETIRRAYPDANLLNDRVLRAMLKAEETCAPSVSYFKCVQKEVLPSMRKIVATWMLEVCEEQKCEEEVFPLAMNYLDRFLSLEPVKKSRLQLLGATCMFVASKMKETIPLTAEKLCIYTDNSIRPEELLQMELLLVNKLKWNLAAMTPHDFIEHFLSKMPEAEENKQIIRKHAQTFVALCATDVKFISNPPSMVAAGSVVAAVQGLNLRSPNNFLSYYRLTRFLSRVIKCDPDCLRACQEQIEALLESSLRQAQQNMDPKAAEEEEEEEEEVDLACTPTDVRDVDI

Row | Compound | IC50
43 | COc1nc(-c2ccnc(Nc3ccc(N4CCOC(C)C4)cn3)n2)cc2c1ncn2C(C)C (stereo not shown) [compound 96] | 10 to 100 nM
44 | COc1nc(-c2nc(Nc3ccc(N4CCC5(CC4)CC(=O)NC5=O)cn3)ncc2F)cc2c1nc(C)n2C(C)C [compound 79] | 10 to 100 nM
45 | COc1nc(-c2ccnc(Nc3ccc(CN4CCC(C#N)C4)cn3)n2)cc2c1ncn2C(C)C (stereo not shown) [compound 67] | 10 to 100 nM
46 | COc1nc(-c2nc(Nc3ccc(N4CC5CCC(C4)O5)cn3)ncc2F)cc2c1nc(C)n2C(C)C [compound 65] | 10 to 100 nM
47 | COc1nc(-c2ccnc(Nc3ccc(CN4CCOCC4)cn3)n2)cc2c1ncn2C(C)C [compound 81] | 10 to 100 nM
48 | COc1nc(-c2nc(Nc3ccc(N4CCCC4=O)cn3)ncc2F)cc2c1nc(C)n2C(C)C [compound 82] | 10 to 100 nM
49 | COc1nc(-c2ccnc(Nc3ccc(N4CCOC(C)(C)C4)cn3)n2)cc2c1ncn2C(C)C [compound 88] | 10 to 100 nM
50 | COc1nc(-c2ccnc(Nc3ccc(N4CC5CC4CO5)cn3)n2)cc2c1ncn2C(C)C (stereo not shown) [compound 104] | 10 to 100 nM
51 | COc1nc(-c2ccnc(Nc3ccc(CN4CCC(F)C4)cn3)n2)cc2c1ncn2C(C)C (stereo not shown) [compound 76] | 10 to 100 nM

Same assay, conditions: CDK4/CyclinD1, 200 μM ATP

Row | Compound | IC50
52 | CC(C)n1cnc2c(F)nc(-c3ccnc(Nc4ccc(N5CCN(C)CC5)cn4)n3)cc21 [compound 290] | < 10 nM
53 | COc1nc(-c2nc(Nc3ccc(N4CCN(CCF)CC4)cn3)ncc2F)cc2c1ncn2C(C)C [compound 125] | 10 to 100 nM
54 | CCNC1CCN(c2ccc(Nc3nccc(-c4ccn5ncc(C(C)C)c5c4)n3)nc2)C(=O)C1 (stereo not shown) [compound 209] | < 10 nM
55 | COc1nc(-c2ccnc(Nc3ccc(N4CCN(C5COC5)CC4)cn3)n2)cc2c1ncn2C(C)C [compound 130] | < 10 nM
56 | CC(C)n1cnc2c1CN(c1ccnc(Nc3ccc(N4CCN(S(C)(=O)=O)CC4=O)cn3)n1)CC2 [compound 240] | 10 to 100 nM
57 | COc1nc(-c2nc(Nc3ccc(N4CCN(C5COC5)CC4)cn3)ncc2F)cc2c1ncn2C(C)C [compound 133] | 10 to 100 nM
58 | CC(C)c1cnn2ccc(-c3ccnc(Nc4ccn(CC5CCN(C(=O)CO)CC5)n4)n3)cc12 [Synthetic Example 55] | 10 to 100 nM
